# Bridge positions count the residues as written; N and C are the ends. Square brackets hold non-standard residues; d marks the D form. Peptide text beside a SMILES is read from it.
# Tests used:
# [1] = system: glucagon and insulin secretion; experiment: in vivo inhibition of glucagon and insulin secretion upon stimulation with L-alanine; set-up: species or system mongrel dogs; settings: intravenous infusion
# Experimental: D-Val^2, D-Trp^8 -somatostatin was tested for its in vivo activity in inhibiting glucagon and insulin secretion upon stimulation with L-alanine. Normal mongrel dogs of either sex were fasted overnight. Control blood samples were obtained, and then an intravenous infusion of saline, somatostatin, or D-Val^2, D-Trp^8 -somatostatin was started. After 30 minutes, L-alanine additionally was administered intravenously for a period of 15 minutes. The infusion of saline, somatostatin, or D-Val^2 D-Trp^8 -somatostatin was continued for 15 minutes after completion of the L-alanine infusion. The infusion of L-alanine caused an abrupt increase in serum concentration of glucagon and insulin which returned to control concentration upon termination of the L-alanine infusion. From the above it was determined that the minimal effective concentration of D-Val^2, D-Trp^8 -somatostatin is about 194 nanograms/kg./min. whereas the minimal effective concentration of somatostatin is 100-200 nanograms/kg./min.
# growth hormone secretion = experiment: release of growth hormone in sodium pentobarbital-stimulated rats; type: in vivo, Spraque-Dawley rats; settings: subcutaneously, serum growth hormone 20 minutes after administration
# Experimental: D-Val^2, D-Trp^8 -somatostatin also was tested for its activity with respect to the release of growth hormone. The procedure which was employed is carried out using normal male Spraque-Dawley rats weighing 100-120 grams (Laboratory Supply Company, Indianapolis, Indiana). The test is a modification of the method of P. Brazeau, W. Vale, and R. Guilleman, Endocrinology, 94, 184 (1974). In this assay, five groups of eight rats each were employed. Sodium pentobarbital was administered intraperitoneally to all of the rats to stimulate growth hormone secretion. One group served as the control and received only saline. Two of the groups received somatostatin, one at 2 μg./rat, subcutaneously, and the other at 50 μg./rat, subcutaneously. The other two groups received D-Val^2, D-Trp^8 -somatostatin, one at 2 μg./rat, subcutaneously, and the other at 50 μg./rat, subcutaneously. The serum concentration of growth hormone was measured 20 minutes after simultaneous administration of sodium pentobarbital and test compound. The degree of inhibition of serum growth hormone concentration then was determined with respect to the control group, and the relative activities of D-Val^2, D-Trp^8 -somatostatin and somatostatin itself were compared. […]
# [2] = system: secretion from the pancreas induced by secretin and cholecystokinin; experiment: inhibition of pancreatic secretion in dogs with pancreatic and total gastric fistula; type: in vivo
# Experimental: In three dogs having both pancreatic and total gastric fistula, secretion from the pancreas was induced by infusion of secretin at 2 units/kg-hr. and cholecystokinin at 0.45 unit/kg-hr., and secretion of gastric HCl by infusion of tetragastrin at 0.5 μg/kg-hr. After a steady response was established, each dog received D-Val^2, D-Trp^8 -somatostatin for one hour at 0.25 μg/kg-hr. The peak inhibitory effect expressed as percent change over control for total protein was -72%. This corresponds to the inhibitory effect obtained by administration of about 0.5 μg/kg-hr. of somatostatin.
# [3] = system: gastric HCl secretion induced by the C-terminal tetrapeptide of gastrin; experiment: in vivo inhibition of gastric acid secretion in dogs with chronic fistula and Heidenhain pouch
# Experimental: D-Val^2, D-Trp^8 -somatostatin was tested in dogs for its in vivo inhibition of gastric acid secretion. In six dogs with chronic fistula and Heidenhain pouch, gastric HCl secretion was induced by infusion of the C-terminal tetrapeptide of gastrin at 0.5 μg/kg-hr. Each dog served as its own control, receiving on a separate day only the tetrapeptide. On another day, the six dogs received the tetrapeptide, and after one hour of steady state secretion of HCl, D-Val^2, D-Trp^8 -somatostatin was infused at 0.25 μg/kg-hr. for one hour. Collection of gastric acid samples was continued for an additional 1.5 hours at 15 minute intervals. The samples were titrated to pH 7 with an automatic titrator. The maximal inhibitory effect of the D-Val^2, D-Trp^8 -somatostatin was extrapolated against the dose-response curve of somatostatin, and the relative potency of the analog to that of somatostatin is expressed as percent activity. D-Val^2, D-Trp^8 -somatostatin inhibited steady state acid secretion induced by the C-terminal tetrapeptide of gastrin by 61.9 ± 3.4% standard error of mean. This effect is equivalent to that of 0.324 μg/kg-hr. of somatostatin. Its activity relative to that of somatostatin thus is 130%.
# glucagon secretion = experiment: in vivo inhibition of glucagon secretion upon stimulation with insulin; set-up: species or system mongrel dogs; settings: infused at a rate of 0.109 μg/kg/min.
# Experimental: D-Val^2, D-Trp^8 -somatostatin also was evaluated for in vivo activity in inhibiting glucagon secretion upon stimulation with insulin. Normal mongrel dogs of either sex were fasted overnight. After control blood samples had been obtained, an intravenous infusion of saline, somatostatin, or D-Val^2, D-Trp^8 -somatostatin was commenced. After 15 minutes, insulin, 0.3 units/kg., was injected intravenously. The infusion of saline, somatostatin, or the test compound was continued for two hours, and blood samples were obtained at various intervals throughout the test. The total dose of the somatostatin or test compound ranged from 120-260 μg./dog (0.07-0.13 μg/kg/min.). Administration of insulin produced a reduction in the blood glucose concentration of an increase in serum glucagon concentration.
# gut motility = experiment: action on gut motility in conscious dogs (intralumenal pressure); type: in vivo
# Experimental: D-Val^2, D-Trp^8 -somatostatin also was tested for its action on gut motility in conscious dogs. Three dogs having intralumenal catheters placed in the antrum, duodenum, and pylorus were used. Pressure changes in the gut lumen were recorded on a Visicorder using strain gauges and miniature light beam galvanometers. After a steady state control was established, D-Val^2, D-Trp^8 -somatostatin was infused intravenously over a ten minute period. […] The minimum effective dose required to increase the pyloric pressure and to decrease the duodenum and antrum pressures was >0.125 to <0.25 μg./kg.-10 minutes.
# [4] = intravenous infusion over ten minutes
structure (smiles),measurement,setting,value
"CC(C)[C@@H](NC(=O)[C@H](C)N)C(=O)N[C@H]1CSSC[C@@H](C(=O)O)NC(=O)[C@H](CO)NC(=O)[C@H]([C@@H](C)O)NC(=O)[C@H](Cc2ccccc2)NC(=O)[C@H]([C@@H](C)O)NC(=O)[C@H](CCCCN)NC(=O)[C@@H](Cc2c[nH]c3ccccc23)NC(=O)[C@H](Cc2ccccc2)NC(=O)[C@H](Cc2ccccc2)NC(=O)[C@H](CC(N)=O)NC(=O)[C@H](CCCCN)NC1=O [D-Val^2, D-Trp^8 -somatostatin] (H-A[dV]CKNFF[dW]KTFTSC-OH; disulfide 3-14)",minimal effective concentration (inhibition of glucagon and insulin secretion),[1],about 194 nanograms/kg./min.
same,inhibition of the increase in growth hormone secretion over control,growth hormone secretion; 2 μg./rat,21%
same,inhibition of the increase in growth hormone secretion over control,growth hormone secretion; 50 μg./rat,88%
same,dose of somatostatin giving the corresponding inhibitory effect on pancreatic secretion,[2]; compared with 0.25 μg/kg-hr. of the analog,about 0.5 μg/kg-hr.
same,peak inhibitory effect expressed as percent change over control for total protein,"[2]; three dogs, 0.25 μg/kg-hr. for one hour",-72%
same,dose of somatostatin of equivalent effect on gastric acid secretion,[3]; effect of 0.25 μg/kg-hr. extrapolated against the dose-response curve of somatostatin,0.324 μg/kg-hr.
same,activity relative to that of somatostatin (gastric acid secretion),[3]; relative potency expressed as percent activity,130%
same,inhibition of steady state acid secretion induced by the C-terminal tetrapeptide of gastrin,"[3]; six dogs, infused at 0.25 μg/kg-hr. for one hour, maximal inhibitory effect, ± standard error of mean",61.9 ± 3.4%
same,effect on the rise in serum glucagon concentration produced by insulin hypoglycemia,glucagon secretion,partial inhibition
same,gut motility activity compared with somatostatin,gut motility; based on minimum effective dose,approximately equivalent to that of somatostatin itself
same,effect on intralumenal pressure in the pylorus,gut motility; [4],initially increased the intralumenal pressure in the pylorus and then decreased it
same,effect on pressure in the duodenum and the antrum,gut motility; [4],remained depressed throughout the test
